The source made the active and inactive calls.
Assays:
[1] = HEp-2 cell cytotoxicity, dose response, cytotoxicity control for RSV inhibitor project, HTS (AID 2410); assay type: functional; details: human respiratory syncytial virus
[2] = inhibitors of intracellular T. cruzi replication, confirmation, NIH3T3 host cells, beta-gal luminescence (AID 2044); assay type: functional, cell-based;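 note: intracellular parasites grown in NIH/3T3 mouse fibroblasts as host cells; luminescent beta-galactosidase reporter signal from transgenic T. cruzi replicating inside host cells; inhibitors lower the luminescence signal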
[3] = cytotoxicity toward NIH3T3 fibroblasts, dose response, counter-screen, cell-based, ATP luminescence, mouse fibroblasts (AID 2010); assay type: functional;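 note: cells exposed to compound for about 90 hours before reading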
[4] = target: T1, Heat shock factor protein 1 (Mus musculus, UniProt P38532); assay: HSF1 potentiators in luciferase reporter cells, confirmation, cell-based, NIH3T3, luminescence, dose retest (AID 435004); assay type: functional;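 note: stress induced by proteasome inhibitor MG132 added 30 min after compound; luciferase reporter driven by HSF1 response element in NIH3T3 cells; actives raise luminescence as potentiators of the MG132 stress response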
T1 sequence (P38532 whole entry): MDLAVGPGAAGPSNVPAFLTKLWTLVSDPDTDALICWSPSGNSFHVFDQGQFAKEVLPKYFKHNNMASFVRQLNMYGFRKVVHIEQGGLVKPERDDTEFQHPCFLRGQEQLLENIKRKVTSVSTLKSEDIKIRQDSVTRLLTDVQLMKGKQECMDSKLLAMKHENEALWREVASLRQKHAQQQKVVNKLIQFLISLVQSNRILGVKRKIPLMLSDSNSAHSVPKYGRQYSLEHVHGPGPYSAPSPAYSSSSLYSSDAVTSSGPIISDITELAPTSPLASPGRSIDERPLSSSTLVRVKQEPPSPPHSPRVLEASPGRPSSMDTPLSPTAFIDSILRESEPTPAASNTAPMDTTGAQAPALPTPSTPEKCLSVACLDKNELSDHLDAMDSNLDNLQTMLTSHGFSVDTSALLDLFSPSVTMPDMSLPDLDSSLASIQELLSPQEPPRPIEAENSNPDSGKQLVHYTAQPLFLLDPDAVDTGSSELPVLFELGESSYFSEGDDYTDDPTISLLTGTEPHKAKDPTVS

Cytochrome P450 2C19 = Cytochrome P450 2C19 (Homo sapiens, UniProt P33261); assay: Cytochrome panel assay with activity outcomes. Panel member name: p450-cyp2c19 Compounds with AC50 equal or less than 10 uM are considered active; assay type: functional; details: read-out: AC50
Cytochrome P450 2C19, sequence (P33261 whole entry): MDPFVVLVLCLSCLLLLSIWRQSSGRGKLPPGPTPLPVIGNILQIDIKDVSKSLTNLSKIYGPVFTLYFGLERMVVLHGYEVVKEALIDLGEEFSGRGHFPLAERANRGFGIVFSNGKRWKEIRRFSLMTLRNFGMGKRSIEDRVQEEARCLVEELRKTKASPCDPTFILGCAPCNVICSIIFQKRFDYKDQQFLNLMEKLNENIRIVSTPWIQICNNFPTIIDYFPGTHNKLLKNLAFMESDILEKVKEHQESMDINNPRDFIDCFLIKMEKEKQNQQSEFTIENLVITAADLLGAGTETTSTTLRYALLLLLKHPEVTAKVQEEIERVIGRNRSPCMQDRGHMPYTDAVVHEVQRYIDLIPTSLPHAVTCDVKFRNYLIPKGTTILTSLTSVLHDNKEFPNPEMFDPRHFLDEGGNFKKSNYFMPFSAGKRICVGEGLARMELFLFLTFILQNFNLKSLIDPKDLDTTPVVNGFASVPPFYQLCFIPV

Cytochrome P450 1A2 = target: T2, Cytochrome P450 1A2 (Homo sapiens, UniProt P05177);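 note: PubChem cytochrome P450 panel assay, CYP1A2 panel member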
T2 sequence (P05177 whole entry): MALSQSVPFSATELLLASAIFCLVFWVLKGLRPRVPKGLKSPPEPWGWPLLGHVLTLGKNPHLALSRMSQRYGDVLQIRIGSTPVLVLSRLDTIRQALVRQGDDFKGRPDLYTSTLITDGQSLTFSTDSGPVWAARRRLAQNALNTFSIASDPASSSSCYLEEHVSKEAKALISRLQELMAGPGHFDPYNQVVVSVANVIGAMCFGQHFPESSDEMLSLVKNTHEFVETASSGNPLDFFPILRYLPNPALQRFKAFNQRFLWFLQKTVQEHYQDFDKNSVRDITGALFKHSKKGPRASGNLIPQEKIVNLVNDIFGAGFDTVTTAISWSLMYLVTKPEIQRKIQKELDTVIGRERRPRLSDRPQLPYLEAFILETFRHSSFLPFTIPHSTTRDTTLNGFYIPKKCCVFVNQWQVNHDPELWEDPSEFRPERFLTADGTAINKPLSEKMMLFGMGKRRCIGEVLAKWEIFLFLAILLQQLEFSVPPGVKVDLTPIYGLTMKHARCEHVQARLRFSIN

Cytochrome P450 2C9 = Cytochrome P450 2C9 (Homo sapiens, UniProt P11712)
Cytochrome P450 2C9, sequence (P11712 whole entry): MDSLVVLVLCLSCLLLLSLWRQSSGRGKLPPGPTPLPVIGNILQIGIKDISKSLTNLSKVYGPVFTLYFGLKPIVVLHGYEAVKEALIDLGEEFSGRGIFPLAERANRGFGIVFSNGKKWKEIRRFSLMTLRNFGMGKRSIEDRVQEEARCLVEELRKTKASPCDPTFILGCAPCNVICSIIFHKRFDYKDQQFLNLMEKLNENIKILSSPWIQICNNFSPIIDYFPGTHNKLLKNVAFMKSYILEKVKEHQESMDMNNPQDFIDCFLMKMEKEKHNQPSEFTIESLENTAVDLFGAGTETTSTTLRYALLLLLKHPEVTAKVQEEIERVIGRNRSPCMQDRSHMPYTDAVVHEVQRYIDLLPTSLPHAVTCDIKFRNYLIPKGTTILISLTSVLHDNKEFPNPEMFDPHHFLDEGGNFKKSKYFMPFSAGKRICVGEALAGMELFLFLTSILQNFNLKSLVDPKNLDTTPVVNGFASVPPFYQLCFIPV

[5] = target: T3, Corticotropin-releasing factor receptor 2/Corticotropin-releasing factor-binding protein (Homo sapiens, UniProt P24387+Q13324); assay: activators of CRF receptor 2 with binding protein – uHTS hits, confirmation (AID 602473); assay type: functional; details: read-out: EC50_Mean
T3 sequence (Q13324 whole entry): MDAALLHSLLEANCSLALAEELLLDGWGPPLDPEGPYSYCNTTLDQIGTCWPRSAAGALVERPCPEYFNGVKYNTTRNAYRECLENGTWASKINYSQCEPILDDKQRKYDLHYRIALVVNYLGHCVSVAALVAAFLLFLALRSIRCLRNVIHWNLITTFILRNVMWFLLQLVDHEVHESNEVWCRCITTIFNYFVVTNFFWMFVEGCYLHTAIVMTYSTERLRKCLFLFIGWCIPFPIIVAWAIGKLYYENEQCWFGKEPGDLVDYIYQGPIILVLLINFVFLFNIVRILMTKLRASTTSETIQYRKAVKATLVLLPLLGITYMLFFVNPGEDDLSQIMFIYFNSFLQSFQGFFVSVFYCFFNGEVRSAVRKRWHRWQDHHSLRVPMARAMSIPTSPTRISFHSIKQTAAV
T3 sequence (P24387 whole entry): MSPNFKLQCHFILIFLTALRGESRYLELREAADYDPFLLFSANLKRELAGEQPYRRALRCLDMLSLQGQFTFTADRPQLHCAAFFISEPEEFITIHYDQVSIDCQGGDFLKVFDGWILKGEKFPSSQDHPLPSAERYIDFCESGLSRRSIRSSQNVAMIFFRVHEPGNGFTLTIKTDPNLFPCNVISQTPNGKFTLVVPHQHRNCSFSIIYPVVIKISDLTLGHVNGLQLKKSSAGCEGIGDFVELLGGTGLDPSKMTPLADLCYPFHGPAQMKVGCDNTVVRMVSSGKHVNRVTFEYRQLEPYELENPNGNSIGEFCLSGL

[6] = target: T4, Rac GTPase-activating protein 1 (Homo sapiens, UniProt Q9H0H5); assay: MgcRacGAP GTPase-activating activity inhibitors, confirmation, biochemical, ADP Hunter fluorescence, primary and confirmatory (AID 624330); assay type: functional
T4 sequence (Q9H0H5 whole entry): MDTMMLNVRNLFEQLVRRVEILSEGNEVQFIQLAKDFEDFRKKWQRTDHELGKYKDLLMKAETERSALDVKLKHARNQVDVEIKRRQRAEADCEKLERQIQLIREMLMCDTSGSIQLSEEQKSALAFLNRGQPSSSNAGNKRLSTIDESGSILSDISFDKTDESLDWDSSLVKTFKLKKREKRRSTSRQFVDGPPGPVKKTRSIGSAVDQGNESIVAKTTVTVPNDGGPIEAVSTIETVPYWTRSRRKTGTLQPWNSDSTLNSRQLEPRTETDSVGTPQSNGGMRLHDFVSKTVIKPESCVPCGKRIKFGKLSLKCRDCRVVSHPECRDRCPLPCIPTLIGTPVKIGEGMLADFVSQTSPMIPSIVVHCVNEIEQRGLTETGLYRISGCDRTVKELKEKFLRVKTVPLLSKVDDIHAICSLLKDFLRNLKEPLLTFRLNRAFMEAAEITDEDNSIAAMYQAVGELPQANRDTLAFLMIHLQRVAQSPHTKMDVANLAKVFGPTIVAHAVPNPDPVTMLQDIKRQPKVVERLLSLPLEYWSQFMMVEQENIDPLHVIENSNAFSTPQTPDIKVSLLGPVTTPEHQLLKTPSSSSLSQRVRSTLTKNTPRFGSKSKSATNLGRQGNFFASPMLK

Cytochrome P450 2D6 = Cytochrome P450 2D6 (Homo sapiens, UniProt P10635);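 note: CYP2D6 member of a cytochrome P450 panel assay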
Cytochrome P450 2D6, sequence (P10635 whole entry): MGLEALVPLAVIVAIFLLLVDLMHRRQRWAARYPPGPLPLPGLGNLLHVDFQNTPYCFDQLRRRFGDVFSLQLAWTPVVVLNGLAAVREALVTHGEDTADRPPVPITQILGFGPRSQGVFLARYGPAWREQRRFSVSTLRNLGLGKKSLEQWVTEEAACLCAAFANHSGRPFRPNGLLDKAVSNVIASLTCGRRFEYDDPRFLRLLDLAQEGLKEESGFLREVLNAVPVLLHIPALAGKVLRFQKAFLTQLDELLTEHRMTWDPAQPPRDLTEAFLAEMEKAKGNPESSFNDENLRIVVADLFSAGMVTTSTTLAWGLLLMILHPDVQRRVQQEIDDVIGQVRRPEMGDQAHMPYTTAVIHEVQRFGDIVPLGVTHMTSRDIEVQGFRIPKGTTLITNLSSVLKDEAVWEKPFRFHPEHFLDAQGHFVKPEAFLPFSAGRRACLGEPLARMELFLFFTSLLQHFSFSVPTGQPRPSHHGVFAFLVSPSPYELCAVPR

Cc1nc(SCc2ccccc2F)c2cnn(-c3ccccc3)c2n1
CC50 [1]: 28.5 µM (active)

CC(C)(C)NC(=O)C(c1ccncc1)N(Cc1ccc(F)cc1)C(=O)c1ccc(-c2ccccc2)[nH]1 (configuration not stated)
CC50 [1]: 14.6 µM (active) | EC50 [2]: 0.681 µM (active) | EC50 [3]: > 60 µM (inconclusive)

Cc1cc(C)c(S(=O)(=O)n2ccc(-c3ccc(OCCN(C)c4ccccn4)cc3)n2)c(C)c1
EC50 [4]: > 260 µM (inactive) | AC50 (Cytochrome P450 2C19): 0.631 µM (inconclusive) | AC50 (Cytochrome P450 1A2): 14.1 µM (inconclusive) | AC50 (Cytochrome P450 2C9): 1.78 µM (inconclusive)

Cc1ccc2sc(O)nc2c1
CC50 [1]: 19.7 µM (active)

Cc1c(OCC(=O)NCc2ccccn2)ccc2c3c(c(=O)oc12)CCCC3
CC50 [1]: 21.2 µM (active)

Cc1nc2ccc3nc(NC(=O)C4COc5ccccc5O4)sc3c2s1 (configuration not stated)
CC50 [1]: 41.4 µM (active)

CCOC(=O)/C(C#N)=C(C)/C=C1\Sc2ccccc2N1CC
EC50 [5]: 18.4 µM (active)

CCc1ccccc1NS(=O)(=O)c1ccc(OC)c2ncccc12
CC50 [1]: 16 µM (active)

COC(=O)CCNCCSc1nnc(-c2ccco2)n1Cc1ccccc1
IC50 [6]: 98.5 µM (active)

Nc1ccc(Sc2ccc(N)cc2)cc1 [4,4'-THIODIANILINE]
IC50 [6]: 13.2 µM (active)

COc1ccccc1Cn1c(=S)[nH]c2cc(C(=O)N3CCN(C)CC3)ccc2c1=O
AC50 (Cytochrome P450 2C19): 39.8 µM (inconclusive) | AC50 (Cytochrome P450 2C9): 0.112 µM (inconclusive)

COc1ccccc1NC(=O)COc1ccc(Br)cc1CO
CC50 [1]: > 50 µM (active)

COc1ccc2[nH]c(SCC(=O)c3ccco3)nc2c1
AC50 (Cytochrome P450 2D6): 17.8 µM (inconclusive) | AC50 (Cytochrome P450 2C9): 31.6 µM (inconclusive)

CCOC(=O)c1c(NC=C2C(=O)CCCC2=O)sc(C)c1C
IC50 [6]: 102 µM (active)

CCc1nnc(S)n1/N=C/c1ccc2c(c1)OCO2
AC50 (Cytochrome P450 2D6): 22.4 µM (inconclusive) | AC50 (Cytochrome P450 2C9): 35.5 µM (inconclusive)

COC(=O)COc1ccc(Oc2nc(SC)nc(N(C)C)n2)nn1
EC50 [5]: > 53 µM (inactive)

COC(=O)N1CCC2(CCCN(c3ccccn3)C2)CC1
AC50 (Cytochrome P450 2D6): 39.8 µM (inconclusive) | AC50 (Cytochrome P450 1A2): 25.1 µM (inconclusive) | AC50 (Cytochrome P450 2C9): 31.6 µM (inconclusive)

COc1ccc(C2C(C(=O)N3CCOCC3)c3ccccc3C(=O)N2c2ccc(OC)cc2)cc1 (configuration not stated)
AC50 (Cytochrome P450 2C9): 0.501 µM (inconclusive)

CCN(CC)Cc1c(C(=O)N/N=C/c2cccc(OCc3cccc(Cl)c3)c2)nnn1-c1nonc1N
CC50 [1]: 18.3 µM (active)

Cc1ccc(-c2ccc(/C=N/n3cnnc3)o2)cc1Cl
CC50 [1]: 49.7 µM (active)

CCCS(=O)(=O)N1CCCC(C(=O)NCCCN2CCN(c3cccc(Cl)c3)CC2)C1 (configuration not stated)
AC50 (Cytochrome P450 2C19): 14.1 µM (inconclusive) | AC50 (Cytochrome P450 1A2): 0.00631 µM (inconclusive) | AC50 (Cytochrome P450 2C9): 28.2 µM (inconclusive)

N#Cc1nc(COc2ccccc2Cl)oc1N1CCCC1
CC50 [1]: 41.5 µM (active)

CCOC(=O)N/N=C/c1ccc(N2CCOCC2)s1
IC50 [6]: 52.6 µM (active)

COC(=O)c1cc2sc(Cl)cc2n1CC(=O)Nc1ccc(OC)c(OC)c1OC
EC50 [5]: > 53 µM (inactive)

CC(C(=O)Nc1ccc2c(c1)OCCO2)c1ccc([N+](=O)[O-])cc1 (configuration not stated)
EC50 [5]: 10.7 µM (active)

CCOc1cc(/C=N/Nc2nc(O)nnc2C)ccc1O
IC50 [6]: 40.2 µM (active)

O=S(=O)(O)c1cc(O)c2c(O)c(/N=N\c3cccc4ccccc34)c(S(=O)(=O)O)cc2c1
AC50 (Cytochrome P450 2C9): 7.94 µM (inconclusive)

O=C(CCN1CCCCC1)c1csc2ccccc12
AC50 (Cytochrome P450 1A2): 3.16 µM (inconclusive) | AC50 (Cytochrome P450 2C9): 3.16 µM (inconclusive)

COc1cc(/C(C)=N\NC(=O)CSc2nc3ccccc3n2C)ccc1O
IC50 [6]: 41.6 µM (active)

CCC(=O)Nc1cc(-c2nn(C)c(=O)c3ccccc23)ccc1N1CCCCC1
AC50 (Cytochrome P450 2D6): 11.2 µM (inconclusive) | AC50 (Cytochrome P450 1A2): 28.2 µM (inconclusive) | AC50 (Cytochrome P450 2C9): 5.01 µM (inconclusive)

CCOc1ccccc1C1CC(c2cccc(NS(C)(=O)=O)c2)=NN1C(=O)c1ccccc1 (configuration not stated)
CC50 [1]: 35.5 µM (active)

CCOc1ccc(NC2c3ccccc3C(=O)N2Cc2ccc3c(c2)OCO3)cc1 (configuration not stated)
CC50 [1]: 14.6 µM (active)

COc1ccc2c(c1)C(=O)N(c1ccccc1)C(=O)C2
AC50 (Cytochrome P450 1A2): 25.1 µM (inconclusive) | AC50 (Cytochrome P450 2C9): 22.4 µM (inconclusive)

COC(=O)N1CCC[C@@]2(CCN(c3ccccn3)C2)C1
AC50 (Cytochrome P450 2C19): 39.8 µM (inconclusive) | AC50 (Cytochrome P450 2C9): 20 µM (inconclusive)

O=C(CSCc1c(Cl)cccc1Cl)NCc1cccnc1
AC50 (Cytochrome P450 2C9): 7.94 µM (inconclusive)
